Patent publication US20150105252A1, “SUBSTITUTED PYRAZOLES AS HERBICIDES” (E I DU PONT DE NEMOURS AND COMPANY, priority 2013, published 2015)

Experiments:
[1] = system: morningglory; assay: Test A preemergence; type: in vivo, Ipomoea spp.; details: preemergence; for Morningglory plant response rating (0 to 100 scale): 125 g ai/ha, visual injury approx. 10 days after treatment; for Morningglory plant response rating: 500 g ai/ha, visual injury after approx. 10 days, 0 to 100 scale (0 no effect, 100 complete control)
Procedure, shortened: (§1)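 Greenhouse test in loam soil/sand blend; compounds formulated in non-phytotoxic solvent with surfactant, applied as preemergence directed soil spray or postemergence to plants 2–10 cm tall at one- to two-leaf stage. Injury rated visually versus untreated controls after approximately 10 days on a 0 (no effect) to 100 (complete control) scale.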

[2] = system: pigweed; assay: Test A preemergence; type: in vivo, Amaranthus retroflexus; details: preemergence; for Pigweed plant response rating (0 to 100 scale): 125 g ai/ha, visual injury approx. 10 days after treatment; for Pigweed plant response rating: 500 g ai/ha, visual injury after approx. 10 days, 0 to 100 scale (0 no effect, 100 complete control)
Procedure, shortened: as §1

[3] = system: corn; assay: Test A preemergence; type: in vivo, Zea mays; details: preemergence; for Corn plant response rating (0 to 100 scale): 125 g ai/ha, visual injury approx. 10 days after treatment; for Corn plant response rating: 500 g ai/ha, visual injury after approx. 10 days, 0 to 100 scale (0 no effect, 100 complete control)
Procedure, shortened: as §1

[4] = system: barnyardgrass; assay: Test A postemergence; type: in vivo, Echinochloa crus-galli
Procedure, shortened: as §1

[5] = system: crabgrass, large; assay: Test A postemergence; type: in vivo, Digitaria sanguinalis
Procedure, shortened: as §1

[6] = system: pigweed; assay: Test A postemergence; type: in vivo, Amaranthus retroflexus; details: Postemergence
Procedure, shortened: as §1

[7] = system: ducksalad; assay: Test B flood; type: in vivo, Heteranthera limosa; details: 250 g ai/ha, visual rating on 0 to 100 scale (0 no effect, 100 complete control), 13 to 15 days
Procedure, shortened: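 Plants were grown to the 2-leaf stage, then pots were flooded to 3 cm above the soil and compounds were applied directly into the paddy water. Water depth was held for the whole test; after 13 to 15 days in a greenhouse, injury was visually rated against untreated controls (0 = no effect, 100 = complete control).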

[8] = system: blackgrass; assay: Test C preemergence; type: in vivo, Alopecurus myosuroides; details: preemergence; for Plant response rating, Blackgrass: 125 g ai/ha, scale 0 to 100, 0 = no effect, 100 = complete control
Procedure, shortened: (§2)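 Greenhouse pot test: preemergence application onto freshly seeded loam/sand mix, postemergence application onto seedlings (1–4 leaves, 2–18 cm) in peat-vermiculite substrate. Responses scored visually 13 to 15 days later relative to controls, where 0 means no effect and 100 means complete control; a dash indicates no result.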

[9] = system: wheat; assay: Test C preemergence; type: in vivo, Triticum aestivum; details: preemergence; for Plant response rating, Wheat: 125 g ai/ha, scale 0 to 100, 0 = no effect, 100 = complete control
Procedure, shortened: as §2

[10] = system: galium; assay: Test C preemergence; type: in vivo, Galium aparine; details: preemergence; for Plant response rating, Galium: 125 g ai/ha, scale 0 to 100, 0 = no effect, 100 = complete control
Procedure, shortened: as §2

[11] = system: crabgrass, large; assay: Test C preemergence; type: in vivo, Digitaria sanguinalis; details: preemergence; for Plant response rating, Crabgrass, Large: 125 g ai/ha, scale 0 to 100, 0 = no effect, 100 = complete control
Procedure, shortened: as §2

[12] = system: johnsongrass; assay: Test C preemergence; type: in vivo, Sorghum halepense; details: preemergence; for Plant response rating, Johnsongrass: 125 g ai/ha, scale 0 to 100, 0 = no effect, 100 = complete control
Procedure, shortened: as §2

[13] = system: soybean; assay: Test C preemergence; type: in vivo, Glycine max; details: preemergence; for Plant response rating, Soybean: 125 g ai/ha, scale 0 to 100, 0 = no effect, 100 = complete control
Procedure, shortened: as §2

[14] = system: oilseed rape; assay: Test C preemergence; type: in vivo, Brassica napus; details: preemergence; for Plant response rating, Oilseed Rape: 125 g ai/ha, scale 0 to 100, 0 = no effect, 100 = complete control
Procedure, shortened: as §2

[15] = Postemergence, 500 g ai/ha, 0 to 100 scale (0 no effect, 100 complete control)
[16] = postemergence, 125 g ai/ha, about 10 days, visual rating on 0 to 100 scale (0 no effect, 100 complete control)
[17] = 125 g ai/ha, 0 to 100 scale, 0 no effect, 100 complete control
[18] = 500 g ai/ha, 0 to 100 scale (0 no effect, 100 complete control)
[19] = 31 g ai/ha, visual rating, scale 0 to 100 (0 no effect, 100 complete control), 13 to 15 days
[20] = 62 g ai/ha, scale 0 to 100 (0 no effect, 100 complete control), 13 to 15 days
[21] = 250 g ai/ha, scale 0 to 100, 0 is no effect, 100 is complete control

For `CCNC(=O)c1cc(CC)n(Cc2ccnc(C(F)(F)F)c2)n1` [Compound 196], the “Morningglory plant response rating (0 to 100 scale)” value [1] was 100, the “Morningglory plant response rating” value [1] was 100 and the “Pigweed plant response rating (0 to 100 scale)” value [2] was 100. The “Pigweed plant response rating” value [2] was 100, the “Corn plant response rating (0 to 100 scale)” value [3] was 10 and the “Corn plant response rating” value [3] was 90. For the same molecule, the “Barnyardgrass plant response rating” value [4, 15] was 90, the “Barnyardgrass plant response rating” value [4, 16] was 90 and the “Crabgrass, Large plant response rating” value [5, 15] was 100. The “Crabgrass, Large plant response rating” value [5, 16] was 90, the “Pigweed plant response rating” value [6, 17] was 100 and the “Pigweed plant response rating” value [6, 18] was 100. The “Plant response rating, Ducksalad” value [7] was 80, the “Blackgrass plant response rating” value [8, 19] was 85 and the “Blackgrass plant response rating” value [8, 20] was 90. For the same molecule, the “Plant response rating, Blackgrass” value ([8]; 13 to 15 days) was 90, the “Blackgrass plant response rating” value [8, 21] was 90 and the “Wheat plant response rating” value [9, 19] was 0. For the same molecule, the “Wheat plant response rating” value [9, 20] was 65, the “Plant response rating, Wheat” value ([9]; 13 to 15 days) was 85 and the “Wheat plant response rating” value [9, 21] was 80. The “Galium plant response rating” value [10, 19] was 98, the “Galium plant response rating” value [10, 20] was 95 and the “Plant response rating, Galium” value ([10]; 13 to 15 days) was 100. For the same molecule, the “Galium plant response rating” value [10, 21] was 100, the “Crabgrass, Large plant response rating” value [11, 19] was 98 and the “Crabgrass, Large plant response rating” value [11, 20] was 98. For the same molecule, the “Plant response rating, Crabgrass, Large” value ([11]; 13 to 15 days) was 100, the “Crabgrass, Large plant response rating” value [11, 21] was 100 and the “Johnsongrass plant response rating” value [12, 19] was 55. For the same molecule, the “Johnsongrass plant response rating” value [12, 20] was 85, the “Plant response rating, Johnsongrass” value ([12]; 13 to 15 days) was 100 and the “Johnsongrass plant response rating” value [12, 21] was 100. The “Soybean plant response rating” value [13, 19] was 40, the “Soybean plant response rating” value [13, 20] was 55 and the “Plant response rating, Soybean” value ([13]; 13 to 15 days) was 90. For the same molecule, the “Soybean plant response rating” value [13, 21] was 98, the “Oilseed Rape plant response rating” value [14, 19] was 90 and the “Oilseed Rape plant response rating” value [14, 20] was 98. For the same molecule, the “Plant response rating, Oilseed Rape” value ([14]; 13 to 15 days) was 100 and the “Oilseed Rape plant response rating” value [14, 21] was 100.

With `Cc1cc(C(=O)NC(C)C)nn1Cc1ccnc(C(F)(F)F)c1` [Compound 197] the “Morningglory plant response rating (0 to 100 scale)” value [1] was 100, the “Morningglory plant response rating” value [1] was 100 and the “Pigweed plant response rating (0 to 100 scale)” value [2] was 100. The “Pigweed plant response rating” value [2] was 100, the “Corn plant response rating (0 to 100 scale)” value [3] was 0 and the “Corn plant response rating” value [3] was 90. For the same molecule, the “Barnyardgrass plant response rating” value [4, 15] was 100, the “Barnyardgrass plant response rating” value [4, 16] was 80 and the “Crabgrass, Large plant response rating” value [5, 15] was 100. The “Crabgrass, Large plant response rating” value [5, 16] was 80, the “Pigweed plant response rating” value [6, 17] was 100 and the “Pigweed plant response rating” value [6, 18] was 100. For the same molecule, the “Plant response rating, Ducksalad” value [7] was 95, the “Blackgrass plant response rating” value [8, 19] was 0 and the “Blackgrass plant response rating” value [8, 20] was 85. For the same molecule, the “Plant response rating, Blackgrass” value ([8]; 13 to 15 days) was 90, the “Blackgrass plant response rating” value [8, 21] was 90 and the “Wheat plant response rating” value [9, 19] was 0. For the same molecule, the “Wheat plant response rating” value [9, 20] was 0, the “Plant response rating, Wheat” value ([9]; 13 to 15 days) was 5 and the “Wheat plant response rating” value [9, 21] was 80. For the same molecule, the “Galium plant response rating” value [10, 19] was 90, the “Galium plant response rating” value [10, 20] was 100 and the “Plant response rating, Galium” value ([10]; 13 to 15 days) was 98. For the same molecule, the “Galium plant response rating” value [10, 21] was 95, the “Crabgrass, Large plant response rating” value [11, 19] was 100 and the “Crabgrass, Large plant response rating” value [11, 20] was 100. The “Plant response rating, Crabgrass, Large” value ([11]; 13 to 15 days) was 100, the “Crabgrass, Large plant response rating” value [11, 21] was 100 and the “Johnsongrass plant response rating” value [12, 19] was 10. For the same molecule, the “Johnsongrass plant response rating” value [12, 20] was 40, the “Plant response rating, Johnsongrass” value ([12]; 13 to 15 days) was 80 and the “Johnsongrass plant response rating” value [12, 21] was 85. For the same molecule, the “Soybean plant response rating” value [13, 19] was 45, the “Soybean plant response rating” value [13, 20] was 80 and the “Plant response rating, Soybean” value ([13]; 13 to 15 days) was 98. The “Soybean plant response rating” value [13, 21] was 98, the “Oilseed Rape plant response rating” value [14, 19] was 80 and the “Oilseed Rape plant response rating” value [14, 20] was 95. For the same molecule, the “Plant response rating, Oilseed Rape” value ([14]; 13 to 15 days) was 95 and the “Oilseed Rape plant response rating” value [14, 21] was 100.

`CCCNC(=O)c1cc(CCC)n(Cc2cc(C(F)(F)F)nn2C)n1` [Compound 198] was tested, and the “Morningglory plant response rating (0 to 100 scale)” value [1] was 100, the “Morningglory plant response rating” value [1] was 100 and the “Pigweed plant response rating (0 to 100 scale)” value [2] was 100. The “Pigweed plant response rating” value [2] was 100, the “Corn plant response rating (0 to 100 scale)” value [3] was 0 and the “Corn plant response rating” value [3] was 90. For the same molecule, the “Barnyardgrass plant response rating” value [4, 15] was 100, the “Barnyardgrass plant response rating” value [4, 16] was 90 and the “Crabgrass, Large plant response rating” value [5, 15] was 100. The “Crabgrass, Large plant response rating” value [5, 16] was 90, the “Pigweed plant response rating” value [6, 17] was 100 and the “Pigweed plant response rating” value [6, 18] was 100. For the same molecule, the “Plant response rating, Ducksalad” value [7] was 100, the “Blackgrass plant response rating” value [8, 19] was 85 and the “Blackgrass plant response rating” value [8, 20] was 90. The “Plant response rating, Blackgrass” value ([8]; 13 to 15 days) was 90, the “Blackgrass plant response rating” value [8, 21] was 90 and the “Wheat plant response rating” value [9, 19] was 5. The “Wheat plant response rating” value [9, 20] was 35, the “Plant response rating, Wheat” value ([9]; 13 to 15 days) was 90 and the “Wheat plant response rating” value [9, 21] was 90. The “Galium plant response rating” value [10, 19] was 98, the “Galium plant response rating” value [10, 20] was 95 and the “Plant response rating, Galium” value ([10]; 13 to 15 days) was 100. For the same molecule, the “Galium plant response rating” value [10, 21] was 100, the “Crabgrass, Large plant response rating” value [11, 19] was 98 and the “Crabgrass, Large plant response rating” value [11, 20] was 100. The “Plant response rating, Crabgrass, Large” value ([11]; 13 to 15 days) was 100, the “Crabgrass, Large plant response rating” value [11, 21] was 100 and the “Johnsongrass plant response rating” value [12, 19] was 25. For the same molecule, the “Johnsongrass plant response rating” value [12, 20] was 80, the “Plant response rating, Johnsongrass” value ([12]; 13 to 15 days) was 100 and the “Johnsongrass plant response rating” value [12, 21] was 100. The “Soybean plant response rating” value [13, 19] was 75, the “Soybean plant response rating” value [13, 20] was 90 and the “Plant response rating, Soybean” value ([13]; 13 to 15 days) was 98. The “Soybean plant response rating” value [13, 21] was 98, the “Oilseed Rape plant response rating” value [14, 19] was 95 and the “Oilseed Rape plant response rating” value [14, 20] was 100. For the same molecule, the “Plant response rating, Oilseed Rape” value ([14]; 13 to 15 days) was 100 and the “Oilseed Rape plant response rating” value [14, 21] was 100.
